Assay results taken from patent US5391486A, “Physiologically active substance BE-16627” (Banyu Pharmaceutical Co., Ltd., priority 1989, dated 1995).

Columns and labels:
Stromelysin = target: T1, Stromelysin (Homo sapiens, UniProt P08254); assay: Stromelysin inhibition in vitro (substrate A: 3H casein); assay type: biochemical, Human (Recombinant); conditions: for inhibition of stromelysin (human) relative to other enzymes: in words, from Table 1, next collagenase and thermolysin; for IC50: stromelysin, human recombinant, substrate A (3H casein)
T1 construct: prostromelysin prepared by genetic engineering (Celltech., GB) was used by treating it with trypsin; purchased Celltech., GB
Protocol: (§1) As stromelysin (human), prostromelysin prepared by genetic engineering (Celltech., GB) was used by treating it with trypsin (10 μg/ml) at 37° C. for 10 minutes and inhibiting a residual trypsin activity with soybean trypsin inhibitor (50 μg/ml).
(§2) Substrate A: ^3 Hcasein

Collagenase = Collagenase inhibition in vitro (substrate A: 3H casein); assay type: biochemical; conditions: Chlostridium histriticum
Protocol: as §1, with “An inhibitory activity of BE-16627A and B to various proteases including stromelysin and collagenase was determined by an in-vitro test. As” for “As”
as §2

Thermolysin = Thermolysin (Bacillus thermoproteolyticus, UniProt P00800); assay: Thermolysin inhibition in vitro (substrate A: 3H casein); assay type: biochemical, Bacillus thermo-proteolyticus
Protocol: as §1, with “An inhibitory activity of BE-16627A and B to various proteases including stromelysin and collagenase was determined by an in-vitro test. As” for “As”
as §2

Trypsin = target: T2, Trypsin (Bos taurus, UniProt P00760); assay: Trypsin inhibition in vitro (substrate A: 3H casein); assay type: biochemical; conditions: bovine
T2 sequence (P00760 24-246): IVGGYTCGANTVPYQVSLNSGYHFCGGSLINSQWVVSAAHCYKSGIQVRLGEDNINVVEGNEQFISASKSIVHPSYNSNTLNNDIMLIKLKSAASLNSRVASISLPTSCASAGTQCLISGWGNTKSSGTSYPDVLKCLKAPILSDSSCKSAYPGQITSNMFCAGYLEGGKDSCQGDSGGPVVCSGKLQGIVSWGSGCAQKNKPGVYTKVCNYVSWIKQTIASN
Protocol: as §1, with “An inhibitory activity of BE-16627A and B to various proteases including stromelysin and collagenase was determined by an in-vitro test. As” for “As”
as §2

Chymotrypsin = Chymotrypsin (Bos taurus, UniProt P00766); assay: Chymotrypsin inhibition in vitro (substrate A: 3H casein); assay type: biochemical; conditions: bovine
Protocol: as §1, with “An inhibitory activity of BE-16627A and B to various proteases including stromelysin and collagenase was determined by an in-vitro test. As” for “As”
as §2

Elastase = Elastase (Sus scrofa, UniProt P00772); assay: Elastase inhibition in vitro (substrate B: Succinylalanyl-prolyl-alanyl-methylcumarylamide); assay type: biochemical; conditions: porcine
Protocol: as §1, with “An inhibitory activity of BE-16627A and B to various proteases including stromelysin and collagenase was determined by an in-vitro test. As” for “As”
Substrate B: Succinylalanyl-prolyl-alanyl-methylcumarylamide

Papain = target: T3, Papain (Carica papaya, UniProt P00784); assay: Papain inhibition in vitro (substrate A: 3H casein); assay type: biochemical; conditions: papaya latex
T3 construct: from tissue; host or cells: Papaya latex
T3 sequence (P00784 134-345): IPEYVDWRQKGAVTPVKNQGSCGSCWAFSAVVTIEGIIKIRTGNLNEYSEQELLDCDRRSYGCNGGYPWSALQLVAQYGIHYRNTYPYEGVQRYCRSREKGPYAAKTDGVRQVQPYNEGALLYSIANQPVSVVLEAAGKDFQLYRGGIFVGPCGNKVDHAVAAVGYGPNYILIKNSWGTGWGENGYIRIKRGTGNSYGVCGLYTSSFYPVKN
Protocol: as §1, with “An inhibitory activity of BE-16627A and B to various proteases including stromelysin and collagenase was determined by an in-vitro test. As” for “As”
as §2

Pepsin = Pepsin (Sus scrofa, UniProt P00791); assay: Pepsin inhibition in vitro (substrate A: 3H casein); assay type: biochemical; conditions: porcine
Protocol: as §1, with “An inhibitory activity of BE-16627A and B to various proteases including stromelysin and collagenase was determined by an in-vitro test. As” for “As”
as §2

[1] = test system: mouse cultured cancer cells (P388); assay: cells; assay type: cell-based
Solubility = assay type: physicochemical
metal enzymes = assay: Inhibitory activity to various proteases (metal enzymes versus others); assay type: biochemical; conditions: in words, from Table 1
Protocol: as §1, with “An inhibitory activity of BE-16627A and B to various proteases including stromelysin and collagenase was determined by an in-vitro test. As” for “As”

[2] = in an organic solvent such as chloroform, ethyl acetate, benzene, hexane and the like

T1 sequence (P08254 100-477): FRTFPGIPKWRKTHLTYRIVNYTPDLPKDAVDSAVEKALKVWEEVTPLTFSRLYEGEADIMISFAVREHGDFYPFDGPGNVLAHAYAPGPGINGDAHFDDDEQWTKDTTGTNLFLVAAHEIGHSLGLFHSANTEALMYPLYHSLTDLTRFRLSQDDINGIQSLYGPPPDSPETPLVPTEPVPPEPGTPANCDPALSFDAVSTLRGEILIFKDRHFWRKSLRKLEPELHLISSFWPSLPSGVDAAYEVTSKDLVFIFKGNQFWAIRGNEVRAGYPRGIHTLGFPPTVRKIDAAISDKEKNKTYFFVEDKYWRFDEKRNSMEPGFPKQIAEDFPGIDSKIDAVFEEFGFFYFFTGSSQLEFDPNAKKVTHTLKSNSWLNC
Sequence of Pepsin (P00791 60-385): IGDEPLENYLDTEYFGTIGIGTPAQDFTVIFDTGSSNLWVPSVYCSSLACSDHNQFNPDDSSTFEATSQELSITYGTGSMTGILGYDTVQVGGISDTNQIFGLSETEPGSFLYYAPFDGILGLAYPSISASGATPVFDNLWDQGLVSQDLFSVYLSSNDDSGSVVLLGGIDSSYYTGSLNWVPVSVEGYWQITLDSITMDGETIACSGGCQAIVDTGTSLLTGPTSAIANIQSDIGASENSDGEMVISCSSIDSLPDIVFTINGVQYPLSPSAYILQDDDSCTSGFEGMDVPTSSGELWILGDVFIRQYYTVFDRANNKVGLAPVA
Sequence of Thermolysin (P00800 233-548): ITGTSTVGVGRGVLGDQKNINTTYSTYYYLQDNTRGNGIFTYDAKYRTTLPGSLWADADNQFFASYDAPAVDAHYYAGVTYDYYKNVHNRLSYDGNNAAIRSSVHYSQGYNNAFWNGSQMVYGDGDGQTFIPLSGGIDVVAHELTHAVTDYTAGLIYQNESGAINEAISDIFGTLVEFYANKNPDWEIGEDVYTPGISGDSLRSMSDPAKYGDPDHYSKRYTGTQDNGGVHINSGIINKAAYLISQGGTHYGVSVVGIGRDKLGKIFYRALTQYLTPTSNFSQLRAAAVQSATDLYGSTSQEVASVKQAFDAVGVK
Sequence of Elastase (P00772 27-266): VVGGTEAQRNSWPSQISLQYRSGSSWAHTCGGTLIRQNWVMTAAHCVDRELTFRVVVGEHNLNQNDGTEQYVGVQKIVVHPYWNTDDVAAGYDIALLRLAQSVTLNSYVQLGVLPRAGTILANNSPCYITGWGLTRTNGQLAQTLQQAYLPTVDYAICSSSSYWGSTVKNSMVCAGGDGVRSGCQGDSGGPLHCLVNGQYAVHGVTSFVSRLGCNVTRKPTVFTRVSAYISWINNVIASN

Row | Compound | inhibition of stromelysin (human) relative to other enzymes (Stromelysin) | IC50 (Stromelysin) [µM] | IC50 (Collagenase) [µM] | IC50 (Thermolysin) [µM] | IC50 (Trypsin) [µM] | IC50 (Chymotrypsin) [µM] | IC50 (Elastase) [µM] | IC50 (Papain) [µM] | IC50 (Pepsin) [µM] | cytotoxicity [1] | IC50 ([1]; Mus musculus, P388, read-out: IC50 value (cytotoxic test)) [µg/mL] | Solubility (Solubility; in an alkaline water) | Solubility (Solubility; [2]) | inhibition of the activity of metal enzymes (metal enzymes)
1 | CCCC(CC(=O)NO)C(=O)NC(CO)C(=O)NC(C(=O)O)C(C)C (stereo not drawn) [BE-16627A] | most strongly inhibited | 5 | 11.6 | 19.3 | > 276 | > 276 | > 276 | 138 | > 276 | low cytotoxicity | ≥ 100 | readily soluble | almost insoluble | specifically inhibited
2 | CC(C)CC(CC(=O)NO)C(=O)NC(CO)C(=O)NC(C(=O)O)C(C)C (stereo not drawn) [BE-16627B] | most strongly inhibited | 0.58 | 2.7 | 2.4 | > 266 | > 266 | > 266 | > 266 | > 266 | low cytotoxicity |  | readily soluble | almost insoluble | specifically inhibited
